In article PMC10035370, “Targeting Tumor Angiogenesis with the Selective VEGFR-3 Inhibitor EVT801 in Combination with Cancer Immunotherapy” (Cancer Research Communications, 2022):

How the values were obtained:
Format in all cases: in vivo, mice
BNL-R3 tumors = assay: VEGFR3 expressing BNL tumor model (BNL-R3)
Method: A total number of 60 female BALB/c mice were injected subcutaneously on the flank with 2 x 10^6 cells in 250 μL PBS buffer/growth factor reduced Matrigel®. Mice were then kept in a post-operative cabinet at 28 °C until complete recovery. Assuming an ovoid form, tumor volume in mm3 was calculated using digital callipers according to the following formula: V = 0.52 x (width)² x length. On day 7, mice were randomized into 4 groups of 11 mice and 1 group with 16 mice, according to mean tumor volume via cage equalizer software. Subsequently, tumor volume was measured on days 11, 13, 15, 18, 19 and 21 following tumor cell injection. The selected groups received vehicle or EVT801 orally in a volume of 10 mL/kg. Mice body weight was measured daily before dosing. On the day of termination, mice were anaesthetized to facilitate 500 μL blood withdrawal by puncture of the jugular vein. Three mice per group and per time point (i.e., 0.5, 2, 4 and 24 h after the last dosing) were allocated for pharmacokinetic study. Spleens of 3 mice per group were collected, and immune cell populations were separated from dissociated splenocytes via MACS, and subjected to flow cytometry analysis.

RT-HAM-001 tumors = assay: RT-001-HAM subcutaneous patient-derived xenograft tumor mouse model; conditions: 30 mg/kg twice per day, 7-day treatment
Method: Patient-derived tumors of the same passage were transplanted subcutaneously outbred athymic (nu/nu) female HSD mice. When tumor volume reached 726 to 1,437 mm^3, 4 donor mice were sacrificed by cervical dislocation, and tumors were aseptically excised and dissected. After removing necrotic areas, tumor fragments of approximately 20 mm^3 were transferred to culture medium before grafting. A total of 108 mice were anesthetized with 100 mg/kg ketamine hydrochloride (Virbac) and 10 mg/kg xylazine (Bayer). Then, a tumor fragment was placed in the subcutaneous tissue of an incision at the level of the interscapular region as described previously ([30]). All mice from the same experiment were implanted on the same day. A total of 54 mice with RT-001-HAM established growing tumor (P6.0.0/0) between 62.5 and 196 mm^3 were allocated according to tumor volume, ensuring homogenous median and mean tumor volume in each treatment arm. Treatments with 5 mL/kg vehicle, 30 mg/kg EVT801, or 30 mg/kg pazopanib started 15 days after tumor implantation and continued twice per day until termination 7 days later. Tumor volumes were measured via a caliper three times a week during the treatment period. All animals were weighed at the same time as tumor size measurement. Plasma and fresh tumor samples were collected at different timepoints after final dose at day 7 from all mice.

DEN-induced liver tumor = assay: N-diethylnitrosamine-induced hepatocarcinoma mouse model; conditions: daily doses of 100 mg/kg for 2 months
Method: After weighing, 38 male C3/H mice received a 10 mg/kg dose of N-diethylnitrosamine (DEN) intraperitoneally, whereas a group of 5 animals was kept without DEN injection as control group. After 12 months, mice that received DEN injection were randomized by weight in two groups of each 19 animals. The mice were dosed daily orally for 2 months either with EVT801 or vehicle. On the day of termination, mice treated with EVT801 received a last dose of 30 mg/kg to take blood and tumor samples for compound concentration determination. After incision of the peritoneal cavity, blood was taken from the vena cava. Following excision and weighing of the liver, the number of tumors per liver was counted. The tumor burden was calculated as the sum of individual tumor volumes for each mouse. No blood sampling was performed on control and vehicle groups. Plasma and tumor samples were stored at −20°C until analysis. Concentration of EVT801 was determined by LC/MS-MS.

## CCn1c(N)c(-c2ncc[nH]2)c(=O)c2ccc(C#C[C@@](C)(O)COC)nc21 [EVT801]
BNL-R3 tumors; 10 mg/kg twice per day
  T/C ratio, tumor growth: 31%
  decrease of number of vessels: 60%
  decrease of total vessel surface: 35%
BNL-R3 tumors; 30 mg/kg twice per day
  T/C ratio, tumor growth: 10%
  decrease of number of vessels: 83%
  decrease of total vessel surface: 29%
BNL-R3 tumors; both doses, 10 and 30 mg/kg twice per day
  tumor hypoxia: decreased hypoxia
BNL-R3 tumors; endpoint
  infiltration of CD3+ cells in the tumor: increased
RT-HAM-001 tumors
  T/C ratio, tumor volume: 41%
  size of necrotic areas in tumors: decreased
RT-HAM-001 tumors; not statistically significant
  hypoxic areas (CAIX) in tumors: appeared to decrease hypoxia in half of the tumors
DEN-induced liver tumor
  T/C ratio, tumor volume: 22%
  liver weight: fully prevented the increase in liver weight
